# Tests used:
# FAP = target: T1, FAP (Homo sapiens, UniProt Q12884); details: literature [25]; cited from earlier work
# T1 sequence (Q12884 1-760): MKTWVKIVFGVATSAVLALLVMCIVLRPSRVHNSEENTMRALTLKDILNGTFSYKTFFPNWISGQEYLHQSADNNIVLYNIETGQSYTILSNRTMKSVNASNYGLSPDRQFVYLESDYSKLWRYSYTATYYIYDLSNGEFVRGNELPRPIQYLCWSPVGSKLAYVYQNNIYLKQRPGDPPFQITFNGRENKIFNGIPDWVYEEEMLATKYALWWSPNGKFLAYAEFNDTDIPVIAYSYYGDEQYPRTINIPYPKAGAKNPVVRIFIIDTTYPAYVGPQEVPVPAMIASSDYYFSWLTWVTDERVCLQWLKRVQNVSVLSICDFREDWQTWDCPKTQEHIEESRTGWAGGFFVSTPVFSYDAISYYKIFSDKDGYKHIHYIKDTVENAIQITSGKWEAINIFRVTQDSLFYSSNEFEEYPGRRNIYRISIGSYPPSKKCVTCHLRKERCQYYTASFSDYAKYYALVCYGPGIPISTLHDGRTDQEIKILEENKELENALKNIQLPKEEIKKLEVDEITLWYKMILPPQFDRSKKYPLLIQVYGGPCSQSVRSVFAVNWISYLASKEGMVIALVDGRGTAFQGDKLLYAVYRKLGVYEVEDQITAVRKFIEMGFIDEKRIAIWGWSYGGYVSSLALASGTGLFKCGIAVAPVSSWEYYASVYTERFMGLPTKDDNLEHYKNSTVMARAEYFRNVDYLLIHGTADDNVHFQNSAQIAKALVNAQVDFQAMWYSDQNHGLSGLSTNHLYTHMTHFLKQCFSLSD
# [1] = system: HEK293T:hFAP tumor xenografts; assay: Ex vivo biodistribution of 68Ga-labeled tracers in HEK293T:hFAP tumor-bearing mice; details: HEK293T:hFAP tumor xenograft mice, 1 h post-injection, Table 5, mean±SD
# Method: All imaging and biodistribution studies were performed using male NOD-scidIL2Rg^null (NRG) mice and conducted according to the guidelines established by the Canadian Council on Animal Care and approved by Animal Ethics Committee of the University of British Columbia. For tumor inoculations, mice were anesthetized by inhalation with 2% isoflurane in oxygen and implanted subcutaneously with 7.5×10^6 HEK293T:hFAP or U87 cells below the left shoulder. Imaging and biodistribution studies were performed only after tumors grew to 5-8 mm in diameter.
# For ex vivo biodistribution studies, mice were injected with -1-3 MBq of the ^68Ga-labeled tracer. Mice were allowed to recover and roam freely in the cages after injecting the tracer. […] The uptake in each organ/tissue was normalized to the injected dose and expressed as the percentage of the injected dose per gram of tissue (% ID/g).
# Biodistribution data for ^68Ga-SB03178, ^68Ga-SB04033, and ^68Ga-FAPI-4 in mice bearing FAP tumor xenografts are presented in Tables 5-7. Data are presented as mean±SD % ID/g.
Biodistribution: Adrenal Glands [1] [% ID/g],Biodistribution: Blood [1] [% ID/g],Biodistribution: Bone [1] [% ID/g],Biodistribution: Brain [1] [% ID/g],Biodistribution: Fat [1] [% ID/g],Biodistribution: Heart [1] [% ID/g],Biodistribution: Kidneys [1] [% ID/g],Biodistribution: Liver [1] [% ID/g],Biodistribution: Lungs [1] [% ID/g],Biodistribution: Muscle [1] [% ID/g],Biodistribution: Pancreas [1] [% ID/g],Biodistribution: Spleen [1] [% ID/g],Biodistribution: Stomach [1] [% ID/g],Biodistribution: Testes [1] [% ID/g],Biodistribution: Tumor [1] [% ID/g],Structure (SMILES),Tumor uptake over time (FAP)
1.09 ± 0.31,1.09 ± 0.08,3.39 ± 1.03,0.05 ± 0.01,0.11 ± 0.02,0.35 ± 0.03,1.86 ± 0.10,0.37 ± 0.02,0.75 ± 0.09,0.68 ± 0.04,0.38 ± 0.04,0.57 ± 0.13,0.07 ± 0.02,0.29 ± 0.04,12.7±2.19,"N#C[C@@H]1CC(F)(F)CN1C(=O)CNC(=O)c1ccnc2ccc(OCCCN3CCN(C(=O)CN4CCN(CC(=O)O)CCN(CC(=O)O)CCN(CC(=O)O)CC4)CC3)cc12 [^68Ga-FAPI-4, metal not drawn, reference compound]",reduced quickly over time
,,,,,,,,,,,,,,,"N#C[C@@H]1CCCN1C(=O)CNC(=O)c1ccnc2ccc(OCCCN3CCN(C(=O)CN4CCN(CC(=O)O)CCN(CC(=O)O)CCN(CC(=O)O)CC4)CC3)cc12 [^68Ga-FAPI-2, metal not drawn]",reduced quickly over time
